Tests used:
lung tumor LLC cells = experiment: LLC cell viability (CellTiter-Fluor) as readout of proliferation; assay type: cell-based, murine; conditions: 5 mM ALA at day 0, no medium refresh
BTECs = experiment: Mitochondrial ATP levels in BTECs; assay type: cell-based, human; conditions: FLVCR1a-silenced vs scramble shRNA BTECs
Text: Results were expressed as nmol NAD*/min/mg mitochondrial protein for complex I, nmol reduced cytochrome c/min/mg mitochondrial protein for complexes II-III, nmol oxidized cytochrome c/min/mg mitochondrial protein for complex IV. Data represent mean±SEM, n=3. For statistical analyses, an unpaired Student's t-test was used; *=p<0.05, **=p<0.01, *=p<0.001. […] Results are expressed as nmol/mg mitochondrial proteins. Data represent mean±SEM, n=3. For statistical analyses, an unpaired Student's t-test was used; *=p<0.05. […] Results are expressed as pmol CO2/h/mg protein. Data represent mean±SEM, n=3. For statistical analyses, an unpaired Student's t-test was used; **=p<0.01. […] Results were expressed as nmol NAD*/min/mg mitochondrial protein for complex I, nmol reduced cytochrome c/min/mg mitochondrial protein for complexes II-III, nmol oxidized cytochrome c/min/mg mitochondrial protein for complex IV. […] Results are expressed as nmol/mg mitochondrial proteins. […] Results are expressed as pmol CO2/h/mg protein. […] (H) TCA cycle enzymes activities are reported in boxes and expressed as mU/mg mitochondrial proteins. […] Results were expressed as nmol NAD^+/min/mg mitochondrial protein for complex I, nmol reduced cytochrome c/min/mg mitochondrial protein for complexes II-III, nmol oxidized cytochrome c/min/mg mitochondrial protein for complex IV. […] Results are expressed as nmol/mg mitochondrial proteins. […]

Compound	cell proliferation (cell viability) (lung tumor LLC cells)	mitochondrial ATP levels (BTECs)
Cl.NCC(=O)CCC(=O)O [5-ALA, 5-Aminolevulinic acid hydrochloride]	significantly reduced	–
FLVCR1a shRNA: shRNA specifically down-regulating FLVCR1a without targeting FLVCR1b; pLKO.1 lentiviral clone TRCN0000059599, antisense SEQ ID No.: 2 (antisense TTGCTAATGATGCTGTACTGG; sense CCAGTACAGCATCATTAGCAA)	–	increased mitochondrial ATP levels

From US20240285670A1, “THERAPEUTIC TREATMENT OF TUMORS BY BLOCKING THE HEME SYNTHESIS-EXPORT AXIS” (Università degli Studi di Torino, priority 2021, published 2024)
